The test system of series [1] is Cryptosporidium parvum. In words: Anti-cryptosporidial activity on C. parvum development in HCT-8 cultures by qRT-PCR (compound present during invasion and growth, 44 h). The format is cell-based. As for the experimental part:
(§1) Using molecular docking of the simulated CpCDPK2A structure, small molecules were selected from the ChemDiv database. The binding energy values of ligands to proteins were calculated based on ligand efficiency, Coulomb energy, Van der waals energy, and H-bond energy. Candidate small molecules were purchased from TopScience Ltd. (Shanghai, China) and screened for activities against C. parvum development in vitro using qRT-PCR ([Zhang et al., 2012]). Briefly, HCT-8 monolayers (2 × 10^4 cells/well) grown in 96 well plates were inoculated with hypochlorite-treated oocysts (2 × 10^4 oocysts/well) containing dilutions of compounds (10 μM) or DMSO (1%). The parasites were allowed to invade host cells for 3 h, and uninvaded parasites were washed off with the medium change. […] The levels of 18S rRNA transcripts of C. parvum and HCT-8 cells were measured by using the HiScript II One Step qRT-PCR SYBR Green kit (Vazyme Biotech, Nanjing, China) as described ([Zhang et al., 2012]). The parasite loads in cultures were calculated using the ΔΔCT method ([Cai et al., 2005]). […] The cytotoxicity of compounds was evaluated by the Cell Titer 96 Aqueous One Solution Cell Proliferation Assay (Promega) as described ([Pobsuk et al., 2019]). The half-maximal toxic concentration (TC50) values on host cells were calculated using Graphpad Prism 7 (Graphpad software, San Diego, United States).
On the technique in general: Real-time PCR tracks product formation cycle by cycle.

In series [2] the test system is HCT-8 cells. In words: Cytotoxicity, Cell Titer 96 Aqueous One Solution Cell Proliferation Assay. The format is cell-based, human. Here is the method:
as §1

In series [3] the test system is Cryptosporidium parvum. In words: Parasite enumeration by immunofluorescence microscopy in treated HCT-8 cultures. As to conditions: 10 μM; positive control paromomycin 140 μM. The format is cell-based. Here is the method:
(§2) Candidate anti-cryptosporidial compounds were further examined for their effects on C. parvum invasion or development assays. In invasion experiments, HCT-8 cells plated on coverslips were infected with bleached oocysts and cultured with active compounds for 3 h at 37°C. In growth experiments, monolayers were infected with bleached oocysts, washed twice with PBS at 3 h post-infection, and returned to culture in fresh HCT-8 medium with active compounds for 41 h. RNA was collected from each well at specified time point to assess the anti-cryptosporidial activities of these compounds using qRT-PCR method described above. The addition of 140 μM paromomycin was used as a positive control. Parasite enumeration by immunofluorescence microscopy was used to verify the efficacy of active compound K292-0423 against C. parvum development in vitro.

Series [4] has as its system Cryptosporidium parvum. Put plainly: Growth experiment: compound added at 3 h post-infection for 41 h, qRT-PCR. To be noted: read-out: EC50 on parasite loads, compound added after invasion. The class given is cell-based. As for the experimental part:
as §2

In series [5] the target is rCpCDPK2A (Cryptosporidium parvum, UniProt Q5CTY5). In words: NADH-coupled ATPase assay of rCpCDPK2A enzyme activity. The class given is biochemical. As for the experimental part: The enzymatic activity of rCpCDPK2A was measured using the […] NADH-coupled ATPase assay as described previously ([Rutaganira et al., 2017]). The kinase reaction was conducted at 30°C for 40 min in 100 mM HEPES, pH 8.0, 150 mM NaCl, 10 mM MgCl2, 1 mM CaCl2, 50 mM KCl, 10 mM DTT, 2 μg/ml BSA, and 0.01% Tween 20. The typical assay of 100 μl reactions contained 50 μM Syntide-2, 50 μM ATP, 150 μM NADH, 300 μM phosphoenolpyruvate (PEP), and a mixture of pyruvate kinase (4 units/ml) and lactate dehydrogenase (6 units/ml; Sigma). The reaction was initiated with the addition of 100 nM rCpCDPK2A. A recombinant insulinase-like protease of C. parvum, INS-16, was used as the negative control. To assess the inhibitory effect on enzymatic activities of rCpCDPK2A, six active compounds were added to the reaction at 10 μM in duplicate. Compounds with significant inhibition rates were selected to determine the half-maximal inhibition concentration (IC50) using final concentrations of 1 μM to 20 μM. The IC50 values were calculated using Graphpad Prism 7.
Chain of rCpCDPK2A (Q5CTY5 entry or part of it): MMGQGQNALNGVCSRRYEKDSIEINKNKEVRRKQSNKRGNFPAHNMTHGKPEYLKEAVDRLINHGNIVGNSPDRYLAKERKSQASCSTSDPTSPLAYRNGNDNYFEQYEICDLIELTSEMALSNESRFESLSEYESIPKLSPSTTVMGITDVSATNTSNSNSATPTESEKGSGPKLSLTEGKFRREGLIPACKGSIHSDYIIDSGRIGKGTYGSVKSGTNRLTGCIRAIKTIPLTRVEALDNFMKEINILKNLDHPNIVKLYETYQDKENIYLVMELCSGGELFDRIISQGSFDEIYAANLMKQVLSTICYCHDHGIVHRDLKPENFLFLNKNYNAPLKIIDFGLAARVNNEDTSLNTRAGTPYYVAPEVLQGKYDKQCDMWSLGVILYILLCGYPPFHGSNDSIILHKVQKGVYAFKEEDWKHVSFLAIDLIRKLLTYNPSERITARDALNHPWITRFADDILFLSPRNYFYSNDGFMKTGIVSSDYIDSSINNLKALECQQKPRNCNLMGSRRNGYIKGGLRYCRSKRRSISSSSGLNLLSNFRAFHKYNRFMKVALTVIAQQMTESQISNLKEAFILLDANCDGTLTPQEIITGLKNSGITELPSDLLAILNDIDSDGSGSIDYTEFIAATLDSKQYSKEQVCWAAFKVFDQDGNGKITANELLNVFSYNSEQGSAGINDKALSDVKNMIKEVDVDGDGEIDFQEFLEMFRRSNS

Series [6] concerns Cryptosporidium parvum. In words: Invasion experiment: HCT-8 cells infected with oocysts and cultured with compound for 3 h, qRT-PCR. The format is cell-based. To be noted: 0.01 to 20 μM, compound only during invasion phase (3 h). Here is the method: as §2

This note sets out measurements from publication PMC9090282, “Characterization of Calcium-Dependent Protein Kinase 2A, a Potential Drug Target Against Cryptosporidiosis” (Frontiers in Microbiology, 2022).

The structures appear in SMILES notation.

Consider `O=C(CSc1nc2ccsc2c(=O)n1-c1ccc(Cl)cc1)NCc1ccco1` [K292-0423], for which the inhibition at 10 µM was > 60% in series [1] (10 μM, read-out: Inhibition of parasite growth in primary screening) and 73.1% in series [5] (10 μM compound, read-out: Inhibition rate of rCpCDPK2A activity). Besides, the EC50 in series [1] (dilutions 10 nM to 20 μM, read-out: EC50 (half-maximal effective concentration) on C. parvum growth) stood at 1130 nM; in series [4], 3.16 µM. In series [2], the “TC50 (half-maximal toxic concentration)” value was >75 µM. For the same compound, the “Inhibitory effect by direct enumeration of parasites” value in series [3] is “inhibitory effects similar to that by the positive control paromomycin”. Also, the IC50 in series [5] (concentrations 1 μM to 20 μM, read-out: IC50 on CpCDPK2A enzyme) came to 8.42 µM. For the same compound, the “Inhibition rates of invasion of HCT-8 cells by C. parvum” value in series [6] is on record as −24.27 to 37.66%.

Usually inhibition stands for the share of the control response that was lost under treatment. By IC50 is commonly meant the midpoint of a concentration-inhibition curve.
